The results in this text go back to patent publication US5464617A, “β-lactam compounds” (Hoffmann-La Roche Inc., priority 1994, dated 1995).

Each structure is given as a SMILES string. Values after ≈ are worked out from the molar mass of the structure shown. Structures can show the parent of a compound that is named as a salt. A value given as a limit tells only on which side of the number the result lay.

Test [1] concerns Citrobacter freundii 1982. Description: MIC in vitro of a 1:4 combination of ceftriaxone with a compound of formula I (Test D). The class given is cell-based. To be noted: for MIC C. freundii 1982 (D): test D. As for the experimental part:
The minimum inhibitory concentration in vitro ([…]) of a 1:4 combination of ceftriaxone with a compound of formula I against Citrobacter freundii 1982 was measured and compiled in Table 2 hereinafter.

Test [2] deals with E. coli 1346. The experiment in a line: Antibacterial activity of the products per se, serial dilution method in liquid medium (Test E). It is filed as cell-based. The conditions noted are these: product per se; for MIC E. coli 1346 (E): test E. From the text:
The antibacterial activity of the products per se is illustrated on the basis of Table 3 hereinafter, the minimum inhibitory concentration […] in vitro against E. coli 1346 being determined using the serial dilution method in liquid medium: […]

[3] abbreviates: Table 4, 1:4 combination of ceftriaxone with the compound.

On to `NC(=O)OCC1=C(C(=O)O)N2C(=O)[C@@H]3[C@H]2[C@H](C1)CN3C(=O)CSc1ccncc1` [58(g), (1aS,3aR,6bR)-5-Carbamoyloxymethyl-1-oxo-2-pyridin-4-ylsulphanylacetyl-1a,2,3,3a,4,6b-hexahydro-1H-2,6a-diazacyclobut[cd]indene-6-carboxylic acid sodium salt], for which the “MIC C. freundii 1982 (D)” value in test [1] (setting [3]) is 0.25 µg/mL. Moreover, the “MIC E. coli 1346 (E)” value in test [2] (Table 4) was determined as 8 µg/mL.
Consider `NC(=O)OCC1=C(C(=O)O)N2C(=O)[C@@H]3[C@H]2[C@H](C1)CN3C(=O)NCc1cccs1` [27(f), (1aS,3aR,6bR)-5-Carbamoyloxymethyl-2-(thiophen-2-ylmethylcarbamoyl)-1-oxo-1a,2,3,3a,4,6b-hexahydro-1H-2,6a-diaza-cyclobut[cd]indene-6-carboxylic acid sodium salt], for which, in test [1] (setting [3]), the “MIC C. freundii 1982 (D)” value is 0.25 µg/mL. For the same compound, in test [2] (Table 4), the “MIC E. coli 1346 (E)” value was ≤ 0,25 μg/ml.
Take `Cc1nnc(SCC2=C(C(=O)O)N3C(=O)[C@H]4NC[C@@H](S2)[C@H]43)s1` [40(h), (1aS,3aR,6bS)-5-[5-Methyl-1,3,4-thiadiazol-2-ylsulphanylmethyl]-1-oxo-4-thia-1,1a,2,3,3a,6b-hexahydro-2,6a-diazacyclobut[cd]indene-6-carboxylic acid]: the “MIC C. freundii 1982 (D)” value in test [1] (setting [3]) turned out to be 0.5 µg/mL. Besides, the “MIC E. coli 1346 (E)” value in test [2] (Table 4) came out at 8 µg/mL (≈ 22.4 µM).
For the compound `O=C(NC1CC1)OCC1=C(C(=O)O)N2C(=O)[C@@H]3[C@H]2[C@H](C1)CN3C(=O)C(F)(F)F` [94(b), (1aS,3aR,6bR)-5-Cyclopropylcarbamoyloxymethyl-1-oxo-2-trifluoroacetyl-1a,2,3,3a,4,6b-hexahydro-1H-2,6 a-diazacyclobut[cd]indene-6-carboxylic acid sodium salt], the “MIC C. freundii 1982 (D)” value in test [1] (setting [3]) stood at 1 µg/mL. In test [2] (Table 4), the “MIC E. coli 1346 (E)” value was found to be 2 µg/mL.
In the case of `CC(=O)N1C[C@H]2CC(CSc3cc[n+](CC(=O)[O-])cc3)=C(C(=O)O)N3C(=O)[C@@H]1[C@@H]23` [52(a), (1aS,3aR,6bR)-[4-(2-Acetyl-6-carboxy-1-oxo-1a,2,3,3a,4,6b-hexahydro-1H-2,6a-diaza-cyclobut[cd]inden-5-yl-methylsulphanyl)-pyridinio]-acetate bromoacetate (1:3.18) sodium salt (1:4.18)], the “MIC C. freundii 1982 (D)” value in test [1] (setting [3]) is 4 µg/mL. In test [2] (Table 4), the “MIC E. coli 1346 (E)” value turned out to be 8 µg/mL.
Take `CNC(=O)Cn1nnnc1SCC1=C(C(=O)O)N2C(=O)[C@@H]3[C@H]2[C@H](C1)CN3C(C)=O` [74(a), (1aS,3aR,6bR)-2-Acetyl-5-(1-methylcarbamoylmethyl-1H-tetrazol-5-ylsulphanylmethyl)-1-oxo-1a,2,3,3a,4,6b-hexahydro-1H-2,6a-diazacyclobut[cd]indene-6-carboxylic acid sodium salt]: in test [1] (setting [3]), the “MIC C. freundii 1982 (D)” value came out at 1 µg/mL. The “MIC E. coli 1346 (E)” value in test [2] (Table 4) was determined as 2 µg/mL.
For `O=C(O)C1=C(CSc2nc[nH]n2)C[C@@H]2CN(C(=O)C(F)(F)F)[C@@H]3C(=O)N1[C@H]23` [76(b), (1aS,3aR,6bR)-1-Oxo-5-(1H-1,2,4-triazol-3-ylsulphanylmethyl)-2-trifluoroacetyl-1a,2,3,3a,4,6b-hexahydro-1H-2,6a-diazacyclobut[cd]indene-6-carboxylic acid sodium salt] the same measures were 0.5 µg/mL and at most 0.25 µg/mL.
Consider `Nc1nnc(SCC2=C(C(=O)O)N3C(=O)[C@@H]4[C@H]3[C@H](C2)CN4C(=O)Nc2ccc(O)cc2)s1` [18(d), (1aS,3aR,6bR)-5-(5-Amino-1,3,4-thiadiazol-2-ylsulphanylmethyl)-2-(4-hydroxy-phenylcarbamoyl)-1-oxo-1a,2,3,3a,4,6b-hexahydro-1H-2,6a-diazacyclobut[cd]indene-6-carboxylic acid sodium salt], for which the “MIC C. freundii 1982 (D)” value in test [1] (Table 5, particularly preferred products, 1:4 combination with ceftriaxone) is at most 0.06 µg/mL. Further, the “MIC E. coli 1346 (E)” value in test [2] (Table 5, particularly preferred products) was determined as 32 µg/mL.
As to `CC(=O)Nc1nnc(SCC2=C(C(=O)O)N3C(=O)[C@@H]4[C@H]3[C@H](C2)CN4C(C)=O)s1` [19(j), (1aS,3aR,6bR)-2-Acetyl-5-(5-acetylamino-1,3,4-thiadiazol-2-ylsulphanylmethyl)-1-oxo-1a,2,3,3a,4,6b-hexahydro-1H-2,6a-diazacyclobut[cd]indene-6-carboxylic acid sodium salt], in test [1] (setting [3]), the “MIC C. freundii 1982 (D)” value was found to be 2 µg/mL. The “MIC E. coli 1346 (E)” value in test [2] (Table 4) was 0.5 µg/mL.
Regarding `Cc1nnc(SCC2=C(C(=O)O)N3C(=O)[C@@H]4[C@H]3[C@H](C2)CN4C(=O)CSc2ccncc2)s1` [65(c), (1aS,3aR,6 bR)-5-(S-Methyl-1,3,4-thiadiazol-2-ylsulphanylmethyl)-1-oxo-2-(pyridin-4-ylsulphanylacetyl)-1a,2,3,3a,4,6b-hexahydro-1H-2,6a-diazacyclobut[cd]indene-6-carboxylic acid sodium salt], the “MIC C. freundii 1982 (D)” value in test [1] (setting [3]) came to 1 µg/mL. For the same compound, in test [2] (Table 4), the “MIC E. coli 1346 (E)” value is 2 µg/mL.
The corresponding values for `CS(=O)(=O)N1C[C@H]2CC(COC(N)=O)=C(C(=O)O)N3C(=O)[C@@H]1[C@@H]23` [58(c), (1aS,3aR,6bR)-5-Carbamoyloxymethyl-2-methylsulphonyl-1-oxo-1a,2,3,3a,4,6b-hexahydro-1H-2,6a-diazacyclobut[cd]indene-6-carboxylic acid sodium salt] are 0.5 µg/mL and 0.5 µg/mL.
For the compound `O=C(O)C1=C(CSc2nc(-c3cccnc3)cs2)C[C@@H]2CN[C@@H]3C(=O)N1[C@H]23` [Example 66, (1aS,3aR,6bR)-1-Oxo-5-(4-pyridin-3-yl-thiazol-2-ylsulphanylmethyl)-1a,2,3,3a,4,6b-hexahydro-1H-2,6a-diazacyclobut[cd]indene6-carboxylic acid trifluoroacetate], the “MIC C. freundii 1982 (D)” value in test [1] (setting [3]) stood at 8 µg/mL. Moreover, the “MIC E. coli 1346 (E)” value in test [2] (Table 4) is 4 µg/mL.
As to `[N-]=[N+]=NCC1=C(C(=O)O)N2C(=O)[C@H]3NC[C@@H](C1)[C@H]32` [Example 81, (1aS,3aR,6bR)-5-Azidomethyl-1-oxo-1a,2,3,3a,4,6b-hexahydro-1H-2,6a-diazacyclobut[cd]indene-6-carboxylic acid trifluoroacetate], the “MIC C. freundii 1982 (D)” value in test [1] (setting [3]) was 1 µg/mL. The “MIC E. coli 1346 (E)” value in test [2] (Table 4) amounted to 1 µg/mL.
As to `NC(=O)OCC1=C(C(=O)O)N2C(=O)[C@@H]3[C@H]2[C@H](C1)CN3C(=O)Cc1cccs1` [58(b), (1aS, 3aR,6bR)-5-Carbamoyloxymethyl-1-oxo-2-(thiophen-2-yl-acetyl)-1a,2,3,3a,4,6b-hexahydro-1H-2,6a-diazacyclobut[cd]indene-6-carboxylic acid sodium salt], the “MIC C. freundii 1982 (D)” value in test [1] (setting [3]) was 0.5 µg/mL. Moreover, the “MIC E. coli 1346 (E)” value in test [2] (Table 4) came to 16 µg/mL.
For `CC(=O)N1C[C@H]2CC(COC(=O)NCC(N)=O)=C(C(=O)O)N3C(=O)[C@@H]1[C@@H]23` [96(a), (1aS,3aR,6bR)-2-Acetyl-5-carbamoylmethylcarbamoyloxymethyl-1-oxo-1a,2,3,3a,4,6b-hexahydro-1H-2,6a-diazacyclobut[cd]indene-6-carboxylic acid sodium salt] the same measures were 2 µg/mL and 8 µg/mL.
`CSc1nnnn1CC1=C(C(=O)O)N2C(=O)[C@H]3NC[C@@H](S1)[C@H]32` [Example 44, (1aS,3aR,6bS)-5-(5-Methylsulphanyl-1H-tetrazol-1-ylmethyl)-1-oxo-1,1a,2,3,3a,6b-hexahydro-4-thia-2,6a-diazacyclobut[cd]indene-6-carboxylic acid sodium salt]: the “MIC C. freundii 1982 (D)” value in test [1] (setting [3]) was 4 µg/mL. Besides, the “MIC E. coli 1346 (E)” value in test [2] (Table 4) stood at 32 µg/mL.
As to `O=C(O)C1=C(Sc2ccncc2)C[C@@H]2CN(C(=O)Nc3ccc(O)cc3)[C@@H]3C(=O)N1[C@H]23` [3(o), (1aS,3aR,6bR)-2-(4-Hydroxy-phenylcarbamoyl)-1-oxo-5-(pyridin-4-ylsulphanyl)-1a,2,3,3a,4,6b-hexahydro-1H-2,6a-diazacyclobut[cd]indene-6-carboxylic acid sodium salt], the “MIC C. freundii 1982 (D)” value in test [1] (setting [3]) was 1 µg/mL. Also, the “MIC E. coli 1346 (E)” value in test [2] (Table 4) was over 32 µg/mL.
In the case of `COc1cc(CNC(=O)N2C[C@H]3CC(Sc4nnnn4C)=C(C(=O)O)N4C(=O)[C@@H]2[C@@H]34)on1` [3(h), (1aS,3aR,6bR)-2-(3-Methoxy-isoxazol-5-ylmethylcarbamoyl)-5-(1-methyl-1H-tetrazol-5-ylsulphanyl)-1-oxo-1a,2,3,3a,4,6b-hexahydro-1H-2,6a-diazacyclobut[cd]indene-6-carboxylic acid sodium salt], in test [1] (Table 2, 1:4 combination of ceftriaxone with the compound), the “MIC C. freundii 1982” value was determined as 2 µg/mL. The “MIC E. coli 1346” value in test [2] (Table 3, liquid medium) was found to be 16 µg/mL.
Regarding `O=C(Cn1nnnc1SCC1=C(C(=O)O)N2C(=O)[C@H]3NC[C@@H](O1)[C@H]32)NC1CC1` [Example 29(g), (1aS,3aR,6bS)-5-(1-(cyclopropyl-carbamoylmethyl)-1H-tetrazol-5-ylsulphanylmethyl)-1-oxo-1,1a,2,3,3a,6b-hexahydro-4-oxa-2,6a-diazacyclobut[cd]indene-6-carboxylic acid], in test [1] (setting [3]), the “MIC C. freundii 1982 (D)” value came out at 8 µg/mL. Besides, the “MIC E. coli 1346 (E)” value in test [2] (Table 4) is 8 µg/mL (≈ 19.6 µM).
In the case of `O=CN1C[C@H]2OC(CSc3nnnn3CC(=O)NOC(c3ccccc3)(c3ccccc3)c3ccccc3)=C(C(=O)O)N3C(=O)[C@@H]1[C@@H]23` [38(d), (1aS,3aR,6bS)-2-Formyl-1-oxo-5-(1-(trityloxycarbamoylmethyl)-1H-tetrazol-5-ylsulphanylmethyl)-1,1a,2,3,3a,6b-hexahydro-4-oxa-2,6a-diazacyclobut[cd]indene-6-carboxylic acid sodium salt], in test [1] (setting [3]), the “MIC C. freundii 1982 (D)” value was found to be 128 µg/mL. Also, the “MIC E. coli 1346 (E)” value in test [2] (Table 4) was over 32 µg/mL.
